Measured values from patent US4323648A, “Preparation of Monacolin K” (Sankyo Company Limited, priority 1979, dated 1982).

Tests used:
[1] = tested on: rats of the Wistar Imamichi strain; test: Reduction of blood and liver cholesterol levels in Triton WR-1339 treated rats; assay type: in vivo; conditions: rat
Experimental: The animals used were rats of the Wistar Imamichi strain, each having a body weight of about 300 g. The tests were conducted on groups of rats, each group consisting of 5 animals. Each animal was intravenously injected with 400 mg/kg of Triton WR-1339 (a trade name for a material known to increase the blood cholesterol level) whilst simultaneously administering 10 mg/kg of Monacolin K either orally or intraperitoneally. 20 hours after oral administration or 14 hours after intraperitoneal administration, the rats were sacrificed by bleeding and the blood and livers were collected and their cholesterol levels were determined by conventional means.

[2] = biological target: cholesterol biosynthesis (crude enzymes from rat liver); test: In vitro test with rat liver: inhibition of cholesterol biosynthesis from radioactive acetic acid; assay type: biochemical; conditions: acetic acid reacted with enzyme from rat liver
[3] = biological target: T1, HMG-CoA reductase (Rattus norvegicus, UniProt P51639); test: biochemical
T1 sequence (P51639 1-887): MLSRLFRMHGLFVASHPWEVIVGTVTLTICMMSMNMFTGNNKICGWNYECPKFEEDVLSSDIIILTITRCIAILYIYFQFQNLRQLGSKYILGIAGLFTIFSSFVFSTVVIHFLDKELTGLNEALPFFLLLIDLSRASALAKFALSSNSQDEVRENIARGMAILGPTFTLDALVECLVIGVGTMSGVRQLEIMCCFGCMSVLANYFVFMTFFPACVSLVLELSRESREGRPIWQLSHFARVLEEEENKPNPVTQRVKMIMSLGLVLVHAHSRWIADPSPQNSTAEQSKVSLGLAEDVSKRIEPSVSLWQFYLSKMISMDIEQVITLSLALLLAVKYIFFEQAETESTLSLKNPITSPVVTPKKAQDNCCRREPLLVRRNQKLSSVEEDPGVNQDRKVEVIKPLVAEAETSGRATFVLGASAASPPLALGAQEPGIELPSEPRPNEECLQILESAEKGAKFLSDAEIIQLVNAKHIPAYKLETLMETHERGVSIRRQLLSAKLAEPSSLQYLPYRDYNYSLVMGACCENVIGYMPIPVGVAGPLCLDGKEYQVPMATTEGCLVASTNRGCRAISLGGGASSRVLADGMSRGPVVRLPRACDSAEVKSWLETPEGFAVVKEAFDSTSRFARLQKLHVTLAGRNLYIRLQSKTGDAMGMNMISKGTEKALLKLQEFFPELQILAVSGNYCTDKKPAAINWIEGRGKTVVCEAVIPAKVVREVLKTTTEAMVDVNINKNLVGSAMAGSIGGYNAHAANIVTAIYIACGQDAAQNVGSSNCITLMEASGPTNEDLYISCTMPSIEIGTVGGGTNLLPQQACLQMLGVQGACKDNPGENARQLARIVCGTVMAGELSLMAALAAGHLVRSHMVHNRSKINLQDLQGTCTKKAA
Excerpt: The value is obtained by the product of the concentrations of enzyme and of inhibitor divided by the concentration of the enzyme-inhibitor complex.

[4] = Acute oral toxicity; conditions: in vivo, mouse
Excerpt: Not only does Monacolin K have a valuable inhibitory effect on the biosynthesis of cholesterol, but it also has a very low toxicity, making its use for the treatment of hypercholesteraemia potentially very attractive. Specifically the acute oral toxicity (LD50) of Monacolin K in the mouse is 1 g/kg body weight or more.

[5] = tested on: rabbits; test: Reduction of blood cholesterol levels in rabbits; assay type: in vivo; conditions: rabbit, 1 mg/kg oral twice each day
Experimental: In this test, the ability of Monacolin K to reduce cholesterol levels in rabbit blood is measured. The animals employed should each weigh from 2.5 to 3.0 kg. At the beginning of the tests, blood is collected from a vein in an ear of each rabbit and the cholesterol level in the blood serum is measured by a conventional method. A predetermined quantity of Monacolin K or of a Monacolin K-containing culture broth is then administered orally continuously for from 1 to 5 days and the cholesterol level in the blood serum is measured at stages after the administration. The potency of the Monacolin K or Monacolin K-containing culture medium can be determined quantitatively from the blood cholesterol levels obtained prior to and after administration of the Monacolin K.
The test animals used were rabbits having a body weight of from 2.7. kg to 2.9 kg. Each rabbit was given orally 1 mg/kg of Monacolin K twice each day (morning and evening) continuously for 5 days. Prior to administration and at 3 and 5 days after administration, blood was collected from a vein in the ear and the cholesterol levels in the blood serum were determined.

[6] = assay type: physicochemical
Excerpt: Insoluble in hexane and petroleum ether.
The compound is neutral and is insoluble in neutral or acidic aqueous media. It is, however, converted to an acidic substance by treatment with alkali and this acidic substance is soluble in water. The acidic substance can be extracted with ethyl acetate or chloroform at acid pH values and will revert to Monacolin K on evaporation of the solvent.

[7] = 10 mg/kg oral, 20 hours after administration

Row | Solubility [6] | Compound | reduction of blood cholesterol level vs control group (Triton WR-1339 alone) ([1]; 10 mg/kg intraperitoneal, 14 hours after administration) | reduction of blood cholesterol level vs control group (Triton WR-1339 alone) [1, 7] | reduction of liver cholesterol level [1, 7] | concentration giving 50% inhibition of cholesterol biosynthesis [2] | Ki ([3]; competitive with respect to HMG-CoA, read-out: Ki value (inhibition constant)) | manner of inhibition of HMG-CoA reductase ([3]; with respect to HMG-CoA) | LD50 [4] | blood serum cholesterol level lower than prior to administration ([5]; at 3 days) | blood serum cholesterol level lower than prior to administration ([5]; at 5 days)
1 | – | CCC(C)C(=O)OC1CC(C)C=C2C=CC(C)C(CCC3CC(O)CC(=O)O3)C21 (stereo not shown) [Monacolin K] | 23.9% | 22.4% | 16.7% | 0.002 µg/mL | 0.53 nM | competitive | ≥ 1000 mg/kg | 15% | 29%
2 | soluble | CCC(C)C(=O)OC1CC(C)C=C2C=CC(C)C(CCC(O)CC(O)CC(=O)O)C21 (stereo not shown) [acidic substance] | – | – | – | – | – | – | – | – | –
